In ChEMBL document CHEMBL4806959, “Antagonistic peptides for frizzled-1 and frizzled-2” (2015):
Calls of active or inactive are those of the source. The calls are words filed in the database; no cut-off is given here. Residues, ends and D or L forms follow the SMILES beside them.

Assays:
Frizzled-2 [1] = molecular target: T1, Frizzled-2 (Homo sapiens, UniProt Q14332); assay: Antagonist activity at Wnt3a-stimulated frizzled-2 (unknown origin) expressed in human HEK293superTOP flash cells incubated for 24 hrs by luciferase reporter gene assay; assay type: functional, cell-based; details: HEK293, filed as antagonist
T1 sequence (Q14332 24-565 limits assumed): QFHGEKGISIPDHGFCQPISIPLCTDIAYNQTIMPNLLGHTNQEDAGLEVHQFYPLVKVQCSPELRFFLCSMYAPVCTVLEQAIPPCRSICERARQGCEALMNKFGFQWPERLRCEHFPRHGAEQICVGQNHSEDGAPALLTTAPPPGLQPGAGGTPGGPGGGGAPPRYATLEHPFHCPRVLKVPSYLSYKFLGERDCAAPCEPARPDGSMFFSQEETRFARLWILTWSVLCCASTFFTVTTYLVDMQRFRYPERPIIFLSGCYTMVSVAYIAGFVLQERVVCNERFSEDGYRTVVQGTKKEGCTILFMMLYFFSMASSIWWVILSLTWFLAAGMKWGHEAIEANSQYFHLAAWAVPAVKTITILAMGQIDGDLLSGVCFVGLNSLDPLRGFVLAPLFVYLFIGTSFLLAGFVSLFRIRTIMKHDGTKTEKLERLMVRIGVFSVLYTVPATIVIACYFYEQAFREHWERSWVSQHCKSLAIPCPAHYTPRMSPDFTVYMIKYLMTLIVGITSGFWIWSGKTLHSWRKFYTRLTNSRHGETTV

Frizzled-2 [2] = molecular target: T1, Frizzled-2; assay: Antagonist activity at frizzled-2 (unknown origin) expressed in human HEK293superTOP flash cells incubated for 24 hrs by luciferase reporter gene assay; assay type: functional, cell-based; details: HEK293
[3] = molecular target: T2, Frizzled-4 (Homo sapiens) (UniProt Q9ULV1); assay: Antagonist activity at Wnt3a-stimulaed frizzled-4 (unknown origin) expressed in human HEK293superTOP flash cells incubated for 24 hrs by luciferase reporter gene assay; assay type: functional, cell-based; details: HEK293
T2 sequence (whole entry): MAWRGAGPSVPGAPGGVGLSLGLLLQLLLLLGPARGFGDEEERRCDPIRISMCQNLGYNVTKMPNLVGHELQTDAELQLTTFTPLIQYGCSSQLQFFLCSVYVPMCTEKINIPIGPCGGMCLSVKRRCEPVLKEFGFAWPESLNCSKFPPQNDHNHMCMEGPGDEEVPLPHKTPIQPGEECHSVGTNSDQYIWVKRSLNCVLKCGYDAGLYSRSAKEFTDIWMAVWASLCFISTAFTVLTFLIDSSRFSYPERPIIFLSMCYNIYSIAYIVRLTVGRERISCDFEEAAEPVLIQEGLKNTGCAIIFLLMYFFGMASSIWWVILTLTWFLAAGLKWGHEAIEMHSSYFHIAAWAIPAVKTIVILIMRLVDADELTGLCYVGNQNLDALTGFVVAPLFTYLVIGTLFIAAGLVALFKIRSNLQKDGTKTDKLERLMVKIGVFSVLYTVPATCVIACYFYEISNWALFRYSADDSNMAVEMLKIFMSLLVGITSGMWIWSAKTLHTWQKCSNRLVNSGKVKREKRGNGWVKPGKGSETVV

[4] = molecular target: Frizzled-5 (Homo sapiens) (UniProt Q13467); assay: Antagonist activity at Wnt3a-stimulaed frizzled-5 (unknown origin) expressed in human HEK293superTOP flash cells incubated for 24 hrs by luciferase reporter gene assay; assay type: functional, cell-based; details: HEK293
Frizzled-5 (Homo sapiens), sequence (Q13467 whole entry): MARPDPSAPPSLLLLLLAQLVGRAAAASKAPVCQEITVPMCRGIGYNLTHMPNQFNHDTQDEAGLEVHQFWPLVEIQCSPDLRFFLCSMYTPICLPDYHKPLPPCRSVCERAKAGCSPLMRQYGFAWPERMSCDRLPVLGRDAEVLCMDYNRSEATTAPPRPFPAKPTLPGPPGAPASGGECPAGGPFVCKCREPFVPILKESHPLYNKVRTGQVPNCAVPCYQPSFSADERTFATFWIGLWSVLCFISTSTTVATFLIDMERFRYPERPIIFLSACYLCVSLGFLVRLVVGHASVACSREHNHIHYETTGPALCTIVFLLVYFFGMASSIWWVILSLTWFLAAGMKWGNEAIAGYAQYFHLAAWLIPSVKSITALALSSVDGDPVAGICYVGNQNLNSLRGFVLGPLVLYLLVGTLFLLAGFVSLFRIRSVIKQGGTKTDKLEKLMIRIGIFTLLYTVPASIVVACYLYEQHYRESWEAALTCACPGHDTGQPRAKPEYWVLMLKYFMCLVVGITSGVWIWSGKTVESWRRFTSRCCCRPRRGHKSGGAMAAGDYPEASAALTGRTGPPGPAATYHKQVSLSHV

[5] = molecular target: Frizzled-1 (Rattus norvegicus) (UniProt Q08463); assay: Agonist activity at rat frizzled-1 expressed in human HEK293superTOP flash cells by luciferase reporter gene assay; assay type: cell-based; details: HEK293
Frizzled-1 (Rattus norvegicus), sequence (Q08463 whole entry): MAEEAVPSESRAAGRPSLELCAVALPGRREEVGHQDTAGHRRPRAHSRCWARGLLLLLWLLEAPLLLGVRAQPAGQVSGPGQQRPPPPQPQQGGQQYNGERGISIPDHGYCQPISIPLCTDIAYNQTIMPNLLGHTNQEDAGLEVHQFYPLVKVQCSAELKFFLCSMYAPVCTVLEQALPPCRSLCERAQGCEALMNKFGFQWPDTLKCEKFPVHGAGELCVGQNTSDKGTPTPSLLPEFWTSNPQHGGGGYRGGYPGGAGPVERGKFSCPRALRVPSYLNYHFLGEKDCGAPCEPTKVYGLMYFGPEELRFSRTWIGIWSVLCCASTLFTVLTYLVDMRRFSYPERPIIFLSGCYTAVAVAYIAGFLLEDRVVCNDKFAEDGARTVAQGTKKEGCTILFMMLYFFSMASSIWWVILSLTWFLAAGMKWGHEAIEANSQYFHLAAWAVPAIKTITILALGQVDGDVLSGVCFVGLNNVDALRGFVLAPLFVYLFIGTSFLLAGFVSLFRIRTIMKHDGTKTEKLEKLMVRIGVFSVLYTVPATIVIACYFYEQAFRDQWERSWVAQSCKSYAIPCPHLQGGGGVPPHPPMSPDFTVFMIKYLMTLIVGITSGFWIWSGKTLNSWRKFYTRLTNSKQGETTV

[6] = molecular target: Frizzled-2 (Rattus norvegicus) (UniProt Q08464); assay: Agonist activity at rat frizzled-2 expressed in human HEK293superTOP flash cells by luciferase reporter gene assay; assay type: cell-based; details: HEK293
Frizzled-2 (Rattus norvegicus), sequence (Q08464 29-570 limits assumed): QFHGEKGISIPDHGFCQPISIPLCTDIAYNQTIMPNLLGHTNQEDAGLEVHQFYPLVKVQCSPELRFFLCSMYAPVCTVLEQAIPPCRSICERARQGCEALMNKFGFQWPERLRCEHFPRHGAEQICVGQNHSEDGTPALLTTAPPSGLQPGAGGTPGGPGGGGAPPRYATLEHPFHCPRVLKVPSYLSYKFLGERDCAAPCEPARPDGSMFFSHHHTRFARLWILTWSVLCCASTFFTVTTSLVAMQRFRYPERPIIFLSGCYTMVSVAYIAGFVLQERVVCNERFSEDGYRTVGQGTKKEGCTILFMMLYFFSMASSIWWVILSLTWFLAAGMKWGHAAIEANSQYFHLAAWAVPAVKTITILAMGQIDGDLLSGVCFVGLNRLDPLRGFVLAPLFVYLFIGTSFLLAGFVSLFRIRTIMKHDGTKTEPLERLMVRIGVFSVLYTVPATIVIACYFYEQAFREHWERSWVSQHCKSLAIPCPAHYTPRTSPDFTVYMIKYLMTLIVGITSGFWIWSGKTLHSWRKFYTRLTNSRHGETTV

[7] = molecular target: Frizzled-1 (Rattus norvegicus) (UniProt Q08463); assay: Agonist activity at rat frizzled-1 expressed in CHO cells by luciferase reporter gene assay; assay type: cell-based
[8] = molecular target: Frizzled-2 (Rattus norvegicus) (UniProt Q08464); assay: Agonist activity at rat frizzled-2 expressed in CHO cells by luciferase reporter gene assay; assay type: cell-based
[9] = molecular target: Frizzled-1 (Rattus norvegicus) (UniProt Q08463); assay: Agonist activity at rat frizzled-1 expressed in African green monkey COS7 cells by luciferase reporter gene assay; assay type: cell-based
[10] = molecular target: Frizzled-2 (Rattus norvegicus) (UniProt Q08464); assay: Agonist activity at rat frizzled-2 expressed in African green monkey COS7 cells by luciferase reporter gene assay; assay type: cell-based
Rattus norvegicus = species on record: Rattus norvegicus; assay: Selectivity index, ratio of IC50 for Wnt3a-stimulated rat frizzled-1 expressed in human HEK293superTOPFlash cells to IC50 for Wnt3a-stimulated rat frizzled-2 expressed in human HEK293superTOPFlash cells; assay type: cell-based
[11] = molecular target: T2, Frizzled-4 (Homo sapiens); assay: Antagonist activity at Wnt3a-stimulaed human frizzled-4 expressed in human HEK293superTOP flash cells at 10 nM incubated for 24 hrs by luciferase reporter gene assay; assay type: functional, cell-based; details: HEK293
[12] = molecular target: Frizzled-5 (Homo sapiens) (UniProt Q13467); assay: Antagonist activity at Wnt3a-stimulaed human frizzled-5 expressed in human HEK293superTOP flash cells at 10 nM incubated for 24 hrs by luciferase reporter gene assay; assay type: functional, cell-based; details: HEK293
[13] = molecular target: Frizzled-1 (Mus musculus) (UniProt O70421); assay: Antagonist activity at Wnt3a-stimulaed mouse frizzled-1 expressed in human HEK293superTOP flash cells incubated for 24 hrs by luciferase reporter gene assay; assay type: cell-based; details: HEK293, filed as antagonist
Frizzled-1 (Mus musculus), sequence (O70421 whole entry, looked up): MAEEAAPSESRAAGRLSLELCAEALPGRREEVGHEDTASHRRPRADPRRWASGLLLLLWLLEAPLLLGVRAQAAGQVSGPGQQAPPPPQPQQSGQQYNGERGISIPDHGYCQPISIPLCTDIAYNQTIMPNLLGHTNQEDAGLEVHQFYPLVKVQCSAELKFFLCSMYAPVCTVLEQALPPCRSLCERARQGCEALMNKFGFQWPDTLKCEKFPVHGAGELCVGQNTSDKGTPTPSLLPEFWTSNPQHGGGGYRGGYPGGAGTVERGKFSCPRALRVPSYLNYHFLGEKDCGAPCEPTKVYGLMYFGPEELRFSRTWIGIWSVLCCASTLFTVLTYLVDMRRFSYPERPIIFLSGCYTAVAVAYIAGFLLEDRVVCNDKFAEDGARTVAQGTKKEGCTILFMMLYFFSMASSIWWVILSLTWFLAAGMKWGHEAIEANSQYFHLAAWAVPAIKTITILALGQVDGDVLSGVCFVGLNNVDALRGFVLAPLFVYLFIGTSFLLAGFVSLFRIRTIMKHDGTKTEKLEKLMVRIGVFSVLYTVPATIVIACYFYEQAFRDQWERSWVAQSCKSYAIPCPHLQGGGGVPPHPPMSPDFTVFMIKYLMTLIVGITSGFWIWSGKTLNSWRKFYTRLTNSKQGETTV

[14] = molecular target: Frizzled-2 (Mus musculus) (UniProt Q9JIP6); assay: Antagonist activity at Wnt3a-stimulaed mouse frizzled-2 expressed in human HEK293superTOP flash cells incubated for 24 hrs by luciferase reporter gene assay; assay type: cell-based; details: HEK293, filed as antagonist
Frizzled-2 (Mus musculus), sequence (Q9JIP6 whole entry, looked up): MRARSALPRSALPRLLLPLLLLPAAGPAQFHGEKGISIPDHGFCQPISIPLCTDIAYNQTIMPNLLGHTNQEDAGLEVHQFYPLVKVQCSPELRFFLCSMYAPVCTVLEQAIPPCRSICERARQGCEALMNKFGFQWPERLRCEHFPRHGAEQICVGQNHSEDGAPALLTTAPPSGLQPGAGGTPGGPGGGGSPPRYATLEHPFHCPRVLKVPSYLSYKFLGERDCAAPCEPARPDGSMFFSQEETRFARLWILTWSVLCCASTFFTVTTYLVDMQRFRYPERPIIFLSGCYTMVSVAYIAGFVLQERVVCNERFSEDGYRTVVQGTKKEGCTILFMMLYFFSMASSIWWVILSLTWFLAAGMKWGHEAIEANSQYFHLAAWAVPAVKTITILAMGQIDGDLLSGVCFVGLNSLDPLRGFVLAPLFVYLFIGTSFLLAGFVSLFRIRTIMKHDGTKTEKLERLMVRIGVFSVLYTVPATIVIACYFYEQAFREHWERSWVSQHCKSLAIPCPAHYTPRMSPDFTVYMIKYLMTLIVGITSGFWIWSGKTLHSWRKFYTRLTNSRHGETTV

Mus musculus [15] = assay: Cardioprotective activity against myocardial infarction Swiss mouse model assessed as animal mortality at 6 ug/kg/day, sc via osmotic pumps for 5 weeks (reference value: 35%); assay type: functional; details: 840 h, at 6 µg/kg/day
Mus musculus [16] = assay: Cardioprotective activity against myocardial infarction Swiss mouse model assessed as reduction in wet lung weight at 6 ug/kg/day, sc via osmotic pumps for 5 weeks; assay type: functional, organism-based; details: dose 6.0 µg/kg/day
Mus musculus [17] = assay: Cardioprotective activity against myocardial infarction Swiss mouse model assessed as increase in ejection fraction at 6 ug/kg/day, sc via osmotic pumps for 5 weeks by echocardiographic analysis relative to control; assay type: functional; details: dose 6 µg/kg/day
Mus musculus [18] = assay: Cardioprotective activity against myocardial infarction Swiss mouse model assessed as LVAd at 6 ug/kg/day, sc via osmotic pumps for 5 weeks by echocardiographic analysis (reference value: 0.5 +/-0.01 cm2); assay type: functional; details: dose 6 µg/kg/day
Mus musculus [19] = assay: Cardioprotective activity against myocardial infarction Swiss mouse model assessed as LVAs at 6 ug/kg/day, sc via osmotic pumps for 5 weeks by echocardiographic analysis (reference value: 0.44 +/-0.01 cm2); assay type: functional; details: dose 6 µg/kg/day
Mus musculus [20] = assay: Cardioprotective activity against myocardial infarction Swiss mouse model assessed as EDV_L at 6 ug/kg/day, sc via osmotic pumps for 5 weeks by echocardiographic analysis (reference value: 0.214 +/-0.02 cm3); assay type: functional; details: dose 6 µg/kg/day
Mus musculus [21] = assay: Cardioprotective activity against myocardial infarction Swiss mouse model assessed as ESV_L at 6 ug/kg/day, sc via osmotic pumps for 5 weeks by echocardiographic analysis (reference value: 0.179 +/-0.007 cm3); assay type: functional; details: dose 6 µg/kg/day
Mus musculus [22] = assay: Cardioprotective activity against myocardial infarction Swiss mouse model assessed as SV_L at 6 ug/kg/day, sc via osmotic pumps for 5 weeks by echocardiographic analysis (reference value: 0.035 +/-0.005 cm3); assay type: functional; details: dose 6 µg/kg/day
Mus musculus [23] = assay: Cardioprotective activity against myocardial infarction Swiss mouse model assessed as ratio of maximum positive slope to pressure of positive slope at 6 ug/kg/day, sc via osmotic pumps for 5 weeks by Millar pressure recording based analysis (reference value: 43.78 +/-1.93 1/sec); assay type: functional; details: dose 6 µg/kg/day
Mus musculus [24] = assay: Cardioprotective activity against myocardial infarction Swiss mouse model assessed as ratio of maximum negative slope to pressure of negative slope at 6 ug/kg/day, sc via osmotic pumps for 5 weeks by Millar pressure recording based analysis (reference value: 33.29 +/-1.14 1/sec); assay type: functional; details: dose 6 µg/kg/day
Mus musculus [25] = assay: Cardioprotective activity against myocardial infarction Swiss mouse model assessed as reduction in infarction expansion in heart at 6 ug/kg/day, sc via osmotic pumps for 5 weeks by macroscopic analysis; assay type: functional, organism-based; details: dose 6.0 µg/kg/day
Mus musculus [26] = assay: Cardioprotective activity against myocardial infarction Swiss mouse model assessed as ventricular dilation at 6 ug/kg/day, sc via osmotic pumps for 5 weeks by macroscopic analysis; assay type: functional, organism-based; details: dose 6.0 µg/kg/day
Mus musculus [27] = assay: Cardioprotective activity against myocardial infarction Swiss mouse model assessed as reduction in infarct area in heart at 6 ug/kg/day, sc via osmotic pumps for 2 to 5 weeks by immunohistochemical staining analysis; assay type: functional, organism-based; details: dose 6.0 µg/kg/day, time 2-5 weeks
Mus musculus [28] = assay: Cardioprotective activity against myocardial infarction Swiss mouse model assessed as increase in infarct area thickness in heart at 6 ug/kg/day, sc via osmotic pumps for 2 to 5 weeks by immunohistochemical staining analysis; assay type: functional, organism-based; details: dose 6.0 µg/kg/day, time 2-5 weeks
Mus musculus [29] = assay: Cardioprotective activity against myocardial infarction Swiss mouse model assessed as increase in myofibroblast number at 6 ug/kg/day, sc via osmotic pumps for 2 weeks by immunohistochemical staining analysis relative to control; assay type: functional; details: dose 6 µg/kg/day
Mus musculus [30] = assay: Cardioprotective activity against myocardial infarction Swiss mouse model assessed as increase in alpha-SMA gene expression in heart at 6 ug/kg/day, sc via osmotic pumps for 5 weeks by qPCR analysis; assay type: functional, organism-based; details: dose 6.0 µg/kg/day
Mus musculus [31] = assay: Cardioprotective activity against myocardial infarction Swiss mouse model assessed as increase in alpha-SMA protein expression in heart at 6 ug/kg/day, sc via osmotic pumps for 5 weeks by western blot analysis; assay type: functional, organism-based; details: dose 6.0 µg/kg/day
Mus musculus [32] = assay: Cardioprotective activity against myocardial infarction Swiss mouse model assessed as increase in amount of blood vessels in heart at 6 ug/kg/day, sc via osmotic pumps for 5 weeks by immunohistochemical staining analysis; assay type: functional, organism-based; details: dose 6.0 µg/kg/day
Mus musculus [33] = assay: Cardioprotective activity against myocardial infarction Swiss mouse model assessed as reduction in collagen level in infarct area at 6 ug/kg/day, sc via osmotic pumps for 5 weeks by immunohistochemical staining analysis; assay type: functional, organism-based; details: dose 6.0 µg/kg/day
[34] = molecular target: Frizzled-1 (Homo sapiens) (UniProt Q9UP38); assay: Antagonist activity at Wnt3a-stimulaed human frizzled-1 expressed in human HEK293superTOP flash cells incubated for 24 hrs by luciferase reporter gene assay; assay type: functional, cell-based; details: HEK293, filed as antagonist
Frizzled-1 (Homo sapiens), sequence (Q9UP38 70-647 limits assumed): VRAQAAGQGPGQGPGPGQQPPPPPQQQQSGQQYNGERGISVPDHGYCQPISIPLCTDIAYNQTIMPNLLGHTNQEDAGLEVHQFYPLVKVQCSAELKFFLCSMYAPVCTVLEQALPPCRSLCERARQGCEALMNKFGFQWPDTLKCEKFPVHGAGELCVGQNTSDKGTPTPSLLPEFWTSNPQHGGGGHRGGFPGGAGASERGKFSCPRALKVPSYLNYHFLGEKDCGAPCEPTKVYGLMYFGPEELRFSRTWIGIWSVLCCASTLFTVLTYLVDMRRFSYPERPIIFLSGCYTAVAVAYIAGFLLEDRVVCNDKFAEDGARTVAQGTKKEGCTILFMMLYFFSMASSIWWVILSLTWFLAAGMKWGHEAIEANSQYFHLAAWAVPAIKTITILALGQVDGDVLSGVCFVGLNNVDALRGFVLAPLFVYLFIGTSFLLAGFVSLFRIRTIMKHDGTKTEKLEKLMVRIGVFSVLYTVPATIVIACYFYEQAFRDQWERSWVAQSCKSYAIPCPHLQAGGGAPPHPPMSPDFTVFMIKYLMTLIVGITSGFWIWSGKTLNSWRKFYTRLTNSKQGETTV

Frizzled-2 [35] = molecular target: T1, Frizzled-2; assay: Antagonist activity at Wnt3a-stimulaed human frizzled-2 expressed in human HEK293superTOP flash cells incubated for 24 hrs by luciferase reporter gene assay; assay type: functional, cell-based; details: HEK293, filed as antagonist
Mus musculus [36] = assay: Cardioprotective activity against myocardial infarction Swiss mouse model assessed as increase in myofibroblast number at 6 ug/kg/day, sc via osmotic pumps for 5 weeks by immunohistochemical staining analysis; assay type: functional, organism-based; details: dose 6.0 µg/kg/day

CSCC[C@H](NC(=O)CNC(=O)[C@H](CCC(=O)O)NC(=O)[C@H](CO)NC(=O)[C@@H](NC(=O)[C@H](CCCCN)NC(=O)[C@H](CC(N)=O)NC(=O)[C@H](CS)NC(C)=O)[C@@H](C)O)C(=O)N[C@@H](CC(=O)O)C(=O)NCC(=O)N[C@@H](CS)C(=O)N[C@@H](CCC(=O)O)C(=O)N[C@@H](CC(C)C)C(N)=O (Ac-CNKTSEGMDGCEL-NH2)
inhibition (Frizzled-2 [1]): Dose-Dependent Effect
inhibition (Frizzled-2 [2]): inactive
inhibition [3]: inactive
inhibition [4]: inactive
Activity [5]: inactive
Activity [6]: inactive
Activity [7]: inactive
Activity [8]: inactive
Activity [9]: inactive
Activity [10]: inactive
Ratio IC50 (Rattus norvegicus): 100
inhibition [11]: inactive
inhibition [12]: inactive
inhibition [13]: Active
inhibition [14]: Active
mortality at 0.006 mg/kg/day (Mus musculus [15]): 0%
Activity (Mus musculus [16]): Active
fold change (FC) (Mus musculus [17]): 2
Activity (Mus musculus [18]): 0.38 cm2
Activity (Mus musculus [19]): 0.3 cm2
Activity (Mus musculus [20]): 0.132 cm3
Activity (Mus musculus [21]): 0.09 cm3
Activity (Mus musculus [22]): 0.041 cm3
Activity (Mus musculus [23]): 69.13 s⁻¹
Activity (Mus musculus [24]): 32.84 s⁻¹
Activity (Mus musculus [25]): Active
Activity (Mus musculus [26]): Active
Activity (Mus musculus [27]): Active
Activity (Mus musculus [28]): Active
fold change (FC) (Mus musculus [29]): >4
Activity (Mus musculus [30]): Active
Activity (Mus musculus [31]): Active
Activity (Mus musculus [32]): Active
Activity (Mus musculus [33]): Active
inhibition [34]: Active
inhibition (Frizzled-2 [35]): Active
Activity (Mus musculus [36]): Active
